# According to patent publication US20030118983A1, “Rapid screening procedure for inflammation mediators” (priority 2000, published 2003):
# Columns and labels:
# Type in all cases: cell-based, human
# PMNs [1] = test: Propidium iodide determination of PMN viability (membrane integrity); conditions: oxyMb 30 μg/mL, PMA 2 h
# Method: (§1) PMNs were incubated with and without L-NMMA (5 mM) and oxyMb (1-1000 μg/mL) for 10 min at 37° C. followed by PMA (200 nM) for 2 h at 37° C. Membrane integrity was determined flow cytometry analyses after a 2-3 min treatment with PI (0.75 mM).
# lymphocytes = test: Plasma membrane integrity of lymphocytes co-incubated with PMA-activated, oxyMb-treated PMNs; conditions: oxyMb 30 μg/mL
# Method: as §1
# A mixed PMN/lymphocyte preparation was used to determine if the NO. produced by PMNs could affect the plasma membrane integrity of neighboring lymphocytes. PMA-activated and oxyMb (30 μg/mL)-treated PMNs decreased lymphocyte plasma membrane integrity as the ratio of PMNs/lymphocyte increased from 0:1 (76%) to 4:1 (68%) to 10:1 (61%).
# PMNs [2] = test: Total nitrite/nitrate levels in filtrates of PMA-stimulated PMNs; conditions: oxyMb 30 μg/mL
# Method: Total nitrate and nitrite levels in filtrates of PMNs were determined by reducing the nitrate to nitrite by nitrate reductase and reacting the resulting nitrite with 2,3-diaminonaphthalene to form a fluorescent product. PMNs (500,000/300 ul HBSS) were treated with oxyMb (1-1000 µg/mL) and SOD (30 U) for 10 min followed by PMA (200 nM) for 1 h at 30° C. Filtrates were collected by centrifugation at 16,000 g for 15 min through Ultrafree-MC 10,000 NMWL filters (Millipore, Bedford, Mass.). Total nitrite levels were determined with a 96-well fluorescence analyzer (IDEXX, Westbrook, Me.). PMNs exposed to the same treatment were analyzed by flow cytometry for DCFH oxidation.
# PMNs [3] = test: DNA strand breaks in PMA-activated PMNs (tdt-mediated dUTP nick end labeling); conditions: oxyMb 30 μg/mL, PMA 2 h
# Method: OxyMb effect on DNA strand breaks in PMA-activated PMNs was measured by flow cytometry using the tdt-mediated dUTP nick end labeling assay (In Situ Cell Death Detection Kit, Fluorescein, Boehringer Mannheim, Indianapolis, Ind.) according to manufacturer's instructions. PMNs were incubated with and without NMMA (5 mM) and oxyMb (1-1000 μg/mL) for 10 min at 37° C. PMNs were subsequently treated with PMA (200 nM) for 2 h at 37° C. Label solutions without terminal transferase or with DNase I (10 U) served as negative and positive controls, respectively.
# PMNs [4] = test: ATP levels in PMA-activated PMNs (bioluminescent somatic cell assay); conditions: oxyMb 30 μg/mL, PMA 2 h
# Method: OxyMb effect on ATP levels in PMA-activated PMNs was measured using the Bioluminescent Somatic Cell Assay Kit according to the manufacturer's instructions. PMNs were incubated with and without L-NIO (5 mM) and oxyMb (1-1000 μg/mL) for 10 min at 37° C. PMNs were subsequently treated with PMA (200 nM) for 2 h at 37° C. PMNs were lysed, frozen at −20° C. and analyzed within 24 h. Emitted light was determined in a camera luminometer, Tropix (Redford, Mass.) using Panchromatic black and white, ISO 20,000, type 612 film, Polaroid (Cambridge, Mass.) with an exposure time of 2.5 min. Level of exposure was measured and digitized with a solid state camera, COHU (San Diego, Calif.) and analyzed using the public domain NIH Image 1.55 program. Statistical analysis. All values are presented as mean±SEM. The Kolmogorov-Smirnov test was used to verify the normal distribution of the data. Groups were compared by using analysis of variance with the Fisher least significant difference (LSD) post hoc procedure. Statistical significance was accepted at P values<0.05.
# PMNs [5] = test: Heme protein effect on DCFH oxidation in unstimulated, LPS and TNFα-, and PMA-stimulated PMNs, with or without NOS inhibitors, SOD or antioxidants; conditions: for increase in DCFH oxidation compared with 0 and 1000 μg/mL oxyMb: 30 μg/mL oxyMb
# Method: DCFH-loaded PMNs were incubated with and without N-methyl-L-arginine (L-NMMA; 5 mM; Calbiochem, San Diego, Calif.) and heme proteins (0.3-1000 μg/mL) at 37 ° C. for 10 minutes. […] In unstimulated and LPS and TNFα -stimulated PMNs, the treatments were oxyMb, or oxyMb+L-NMMA (5 mM). […] RBC cell membranes were ruptured using a micro-ultrasonic cell disrupter, Kontes, Janke and Kukel Gmbh and CO. (Stauten, Germany). […] OxyMb was prepared by mixing excess sodium dithionite with Mb for 1 h and inorganic sulfur compounds were removed by dialyzing in HBSS buffer for 3 h. Percent iron in the ferric state in non-dithionite treated oxyMb or oxyHb was not assessed. […] […] cross-linked Hb was a gift from Walter Reed Army Institute of Research. […] Also, various concentrations of bovine liver Cu, Zn SOD (30-10,000 U/mL; 8-2640 μg/mL) and 30 μg/mL oxyMb were incubated with PMA-stimulated PMNs pretreated with and without L-NMMA. Flow cytometric measurements of oxidant-induced DCF fluorescence were performed as described above.
# PMNs [6] = test: Phosphatidylserine externalization on PMN plasma membrane (annexin V); conditions: oxyMb 30 μg/mL, PMA 1 h
# Method: Levels of phosphatidylserine on the outer surface of plasma membrane were determined by FITC-labeled annexin V (8 μg per 300,000 PMNs/100 μL) according to manufacturer's instructions (Caltag Laboratories, Burlingame, Calif.). PMNs were incubated with and without L-NMMA (5 mM) and oxyMb (1-1000 μg/mL) for 10 min at 37° C. followed by PMA (200 nM) for 1 h at 37° C. PMNs were then incubated with annexin V for 30 min and propidium iodide (0.75 mM) for 2-3 min at 4° C. prior to flow cytometric analyses.
# PMNs [7] = test: Heme protein effect on DCFH oxidation in unstimulated, LPS and TNFα-, and PMA-stimulated PMNs, with or without NOS inhibitors, SOD or antioxidants; conditions: 10,000 U/mL; 26,300 μg/mL, 30 μg/mL oxyMb
# PMNs [8] = test: Extracellular O2.− produced by PMA-stimulated PMNs (cytochrome c reduction)
# Method: PMNs (200,000/200 μl HBSS) were treated with various concentrations of oxyMb or bovine liver Cu, Zn SOD (0.05-1000 μg/mL) in a 340 ATTC 96-well reader (SLT-Labinstruments, Salzburg, Austria) and activated with PMA. O2.^− production was determined by measuring reduction of cytochrome c, at 550 nm.
# PMNs [9] = test: OxyHb-FLEX bound to and internalized into PMNs (flow cytometry); conditions: concentrations ≧30 μg/mL
# Method: OxyHb bound to and internalized into PMNs was determined using fluorescein-conjugated oxyHb (Molecular Probes, Eugene, Oreg.). […] Flow cytometric measurements were performed as described above. To visualize intracellular levels of oxyHb-FLEX, whole cell and Z-plane images of PMNs were collected using an Axiovert 135 inverted confocal microscope (Zeiss, Thornwood, N.Y., and Atto Instruments, Rockville, Md.).
# [10] = LPS and TNFα-stimulated PMNs, 30 ug/mL oxyMb
substance,measurement,setting,value
oxymyoglobin [oxyMb],PMN plasma membrane damage (reduced viability),PMNs [1],87%
same,"PMN plasma membrane damage, higher than PMNs without oxyMb",PMNs [1],3 fold
same,lymphocyte plasma membrane integrity,"lymphocytes; PMNs/lymphocyte ratio 0:1, PMA",76%
same,lymphocyte plasma membrane integrity,"lymphocytes; PMNs/lymphocyte ratio 4:1, PMA",68%
same,lymphocyte plasma membrane integrity,"lymphocytes; PMNs/lymphocyte ratio 10:1, PMA",61%
same,nitrite levels compared with untreated PMNs,PMNs [2],doubling
same,PMNs containing DNA strand breaks,PMNs [3],50%
same,"PMNs containing DNA strand breaks, greater than PMNs without oxyMb",PMNs [3],4 fold
same,intracellular ATP levels,PMNs [4],"6 ng/300,000 PMNs"
same,"intracellular ATP levels, lower than PMNs without oxyMb",PMNs [4],9 fold
same,oxyMb concentration at which DCFH oxidation peaked,PMNs [5]; LPS and TNFα-stimulated PMNs,30 µg/mL
same,increase in DCFH oxidation compared with 0 μg/mL oxyMb,PMNs [5]; [10],approximately 6 fold
same,increase in DCFH oxidation compared with 1000 μg/mL oxyMb,PMNs [5]; [10],~3 fold
same,oxyMb concentration of peak response in DCFH oxidation,PMNs [5]; PMA-stimulated PMNs,30 µg/mL
same,increase in DCFH oxidation compared with 0 and 1000 μg/mL oxyMb,PMNs [5]; PMA-stimulated PMNs,approximately 3 fold
same,DCFH fluorescence relative to control levels,"PMNs [5]; oxyMb 100 μg/mL in the presence of albumin, data not shown",5 times
same,increase in DCFH oxidation compared with 0 and 1000 μg/mL oxyMb,PMNs [5]; unstimulated PMNs,approximately 4 fold
same,phosphatidylserine positive PMNs,PMNs [6],20%
same,"phosphatidylserine positive PMNs, greater than PMNs without oxyMb",PMNs [6],5 fold
"Bovine liver SOD: bovine liver Cu, Zn superoxide dismutase",effect on DCF fluorescence at highest SOD concentration,PMNs [7],reduced DCF fluorescence below control levels
same,SOD concentration producing peak levels of DCFH oxidation,"PMNs [5]; PMA-stimulated PMNs, in the presence of 30 μg/mL oxyMb",300 U/mL
same,potency in reducing extracellular O2.− relative to oxyMb,PMNs [8],100-1000 fold
fluorescein-5-EX succinimidyl ester conjugated to oxyhemoglobin [OxyHb-FLEX],OxyHb-FLEX bound to and internalized into PMA-stimulated PMNs relative to unstimulated PMNs,PMNs [9],2-6 fold
